This note sets out measurements from patent US11931444B2, “Topical composition” (DSM IP Assets B.V., priority 2018, dated 2024).

The nature of series [1]: Particle size by laser diffraction (Malvern Mastersizer 2000) and/or Coulter Delsa Nano S. The series is classed as physicochemical. From the text: The term ‘mean particle size’ as used herein refers to the mean number-based particle size distribution Dn50 (also known as Dn0.5) as determined by laser diffraction e.g. with a Malvern Mastersizer 2000 (ISO 13320:2009).
All particles sizes have been determined by laser diffraction with a Malvern Mastersizer 2000 according to the method as outlined in ISO 13320:2009 and/or a Coulter Delsa Nano S (dynamic laser scattering).

Series [2] can be described thus: Polarity index (interfacial tension of the oil with respect to water). It counts as physicochemical. The conditions noted are these: for polarity index: Table 1, printed under the ingredient name; for polarity index mN/m: Table 2. The source says:
The term “polarity index” is a parameter which is known to the person skilled in the art. The polarity of an oil is defined as the polarity index (interfacial tension) of the oil with respect to water. The interfacial tension, i. e. the polarity index, can be particularly determined using a ring tensiometer (e.g., Krüss K 10), which measures the interfacial tension in mN/m in analogy to the ASTM method D971-99a (2004).

Turning to `c1ccc2oc(-c3ccc(-c4nc5ccccc5o4)cc3)nc2c1` [DBO-400 (A), 1,4-di(benzoxazol-2′-yl)benzene], the “Particle size Dn50” value in series [1] was found to be 380 nm. Regarding `CC(C)OC(=O)CCCCC(=O)OC(C)C` [Diiso propyl adipate, Diisopropyl Adipate], in series [2], the polarity index was found to be 11.6 mN/m) and the “polarity index mN/m” value was determined as 11.6 mN/m. For `CCCCCCCCCCCCCC(C)C` [Isohexadecane] the same measures were “(polarity index 43.8 mN/m)” and 43.8 mN/m. As for Isocetyl Stearate, the “polarity index mN/m” value in series [2] was 36.2 mN/m.
